# Reference: publication PMC10587869, “Deciphering Structural Determinants Distinguishing Active from Inactive Cell-Penetrating Peptides for Cytosolic mRNA Delivery” (Bioconjugate Chemistry, 2023)
# Positions of bridges follow the written chain, without caps; N, C: chain ends. Non-standard residues stand in square brackets, D forms with d. Residues, ends and D or L forms follow the SMILES beside them. No end group written: not given here. *: point of attachment. Stearoyl = CCCCCCCCCCCCCCCCCC(=O)*; Orn = NCCC[C@H](N)C(=O)O
# How the values were obtained:
# MC3T3 cells [1] = experiment: Cellular uptake of Cy5-eGFP mRNA polyplexes, live-cell confocal microscopy; assay type: cell-based, murine; conditions: for effect of oligomerization on uptake: Cy5-labeled mRNA, polymerized vs monomeric, Figure 5, Figure S5; for ratio of Poly hLF-x vs Mono-hLF-x, Corrected Total Cellular Fluorescence (Cy5): Cy5-eGFP mRNA polyplexes, 2 h post-transfection, n = 5 fields of view per condition
# Method: Peptide-mRNA polyplexes were formulated as previously described.[40],[41] In short, two separate stock solutions of mRNA and peptide were prepared in MQ and simultaneously dispensed with electronically dispensing pipettes (E4 Electronic Pipette, LTS E4-100XLS+, Mettler-Toledo Rainin, LLC, Oakland, CA, USA) at a flow rate of 11 mL min^–1. All polyplexes were formed at a concentration of at least 10-fold the final intended concentration for transfections.
# (§1) One day before mRNA transfections, 10 000 MC3T3 cells in 100 μL were seeded in 96-well plates (Greiner Bio-One Cat. No. 655180) or 20 000 cells in 200 μL in μ-slide eight-well chambers (Ibidi, Gräfelfing, Germany). These seeding densities ensured confluency between ∼70 and 90% on the day of transfection. mRNA transfections were performed by removing the complete medium from the wells and replacing it with mRNA nanoparticles diluted 10 times in complete medium. Cells were exposed to mRNA nanoparticles for 2 h at 37 °C, 5% CO2, in a humidified incubator. For some experiments, cells were stained with 200 μL of 1 μM CellTrace yellow (Thermo Fisher Scientific, Cat. No. C34567) directly after the nanoparticle incubation, according to the manufacturer’s instructions. Regardless of the tested N/P ratio or type of nanoparticle, mRNA inputs were equalized across conditions, resulting in 107 ng/well for luciferase assays in 96-well plate formats and 214 ng/well for confocal microscopy experiments. […] For untreated controls, complete cell culture medium was added and refreshed as often as in the experimental conditions.
# Before microscopy, complete medium containing phenol red was replaced with an equal volume of phenol red-free and HEPES-formulated Opti-MEM (Gibco). The uptake of Cy5-eGFP mRNA-formulated nanoparticles was assessed 2 h post-transfection, and eGFP expression was assessed 24 h post-transfection. Live-cell imaging was performed using a Leica TCS SP8 SMD (Leica Microsystems, Mannheim, Germany) with an HC PL APO CS2 63×/1.20 water objective and a temperature-controlled stage at 36.5 °C. eGFP was excited at 488 nm (emission: 500–550 nm). CellTrace yellow was excited at 555 nm (emission: 570–620 nm), and Cy5 was excited at 633 nm (emission: 650–690 nm). All laser lines were generated by a white-light laser, and emissions were detected with hybrid detectors. All channels were sequentially acquired to avoid crosstalk at a bit depth of 12. Except for the LMM eGFP conditions (reduced gain), equal acquisition settings (pixel size, pinhole, laser power, and gain) per fluorophore were used within the experiments.
# Quantification of the Cy5 fluorescence was performed as previously described.[59],[60] In brief, five separate images (unless stated otherwise) containing approximately 10 cells per image were analyzed using ImageJ (version 1.53f51). A square mask of 184.52 μm^2 was used to quantify the raw integrated density (sum of all pixels in a region of interest). Importantly, cell confluencies ranged from ∼80–95%, ensuring minimal impact of cell density on total fluorescence values. The brightness and contrast of the images were adjusted to find a cell-free region to determine background fluorescence. Then, a circle was drawn to measure the background fluorescence. To obtain the corrected total cellular fluorescence (CTCF), the area (in pixels) was multiplied by the mean gray value of the background and subsequently subtracted from the raw integrated density.
# MC3T3 cells [2] = experiment: Resazurin assay of metabolic activity after mRNA transfection; assay type: cell-based, murine; parameters: concentration or dose not given beside the values; conditions: normalized to untreated
# Method: as §1
# (§2) The resazurin-based assay was performed essentially as described previously.[61],[62] In brief, the effect of different peptide-mRNA complexes on the metabolic activity of cells was measured 24 h post-transfection. Resazurin sodium salt (Sigma-Aldrich, Cat No. R7017) was dissolved in PBS and diluted 100 times to a final concentration of 100 μg/mL in complete medium. After 2 h of incubation with cells at 37 °C, fluorescence was measured using the VICTOR X3Multilabel Plate Reader (PerkinElmer, Waltham, MA, USA). After briefly shaking the plate, resazurin was excited at 485 nm, and emission was collected from 570 to 620 nm. All samples were blanked by the average signal of cell-free wells. Blanked data were normalized to untreated conditions per cell type.
# [3] = Heparin-mediated polyplex decomplexation assay (QuantiFluor RNA); assay type: physicochemical; conditions: for stability of polyplexes against heparin-induced decomplexation: N/P 5, TE buffer pH 7.5, 37 °C 90 min, released mRNA by QuantiFluor RNA dye, Figure 7
# Method: For testing the stability of mRNA polyplexes, a polyanion decomplexation assay, mediated by the polyanionic heparin (heparin sodium salt from porcine intestinal mucosa, Cat. No. H3149-100 KU, Sigma-Aldrich) was performed. mRNA polyplexes were freshly prepared with uncapped SecNLuc mRNA (RIBOPRO), as described in the section mRNA Nanoparticle Formation. Following polyplex formation, all samples were incubated for at least 30 min at room temperature. Importantly, separate stock solutions of heparin were made to ensure an equal volume across conditions regardless of heparin concentration. For decomplexation, 5 μL of 10× polyplexes were diluted in RNase-free TE-buffer at pH 7.5 (Promega, Cat. No. E260A) supplemented with an equal volume of heparin across conditions to a total volume of 50 μL in a 384-well plate (Greiner Bio-One, Cat. No. 781101). All samples were quickly spun down before incubation at 37 °C for 90 min. The QuantiFluor RNA System (Promega, Cat. No. E3310) was used with a 1:2000 dilution of RNA-binding dye for all tested conditions to detect released mRNA. For quantification, a calibration curve with uncapped SecNLuc mRNA was made, spanning from 0.19 ng mRNA/well to 50 ng mRNA/well. For detection of released mRNA, the dye was excited at 485 nm, and emission was collected at 535 nm using the VICTOR X3Multilabel Plate Reader (PerkinElmer)
# Data analysis was performed using GraphPad Prism (GraphPad Software, version 8.4.2, San Diego, CA, USA). Data are presented as means ± standard deviation (SD) unless stated otherwise. Means were calculated by first averaging the technical replicates, for which outliers were identified using Grubbs’ test, followed by averaging the biological replicates. Before statistical analysis, all data were checked for normal distribution with a Shapiro–Wilk test. Statistical analysis was done using one- or two-way analysis of variance (ANOVA). Multiple comparisons were corrected using Tukey’s test with 95% confidence intervals. For the mRNA standard curve used in heparin decomplexation assays, the coefficient of variation was determined both in the standards and in samples and was ≤20%. The standard curve was fitted using a sigmoidal four-parameter logistic curve. The standard curve was back fitted with ±10% accuracy to verify the correctness of the fit. The signals from samples were blanked with the appropriate solution (TE buffer) before calculating interpolations. p > 0.05 was considered not significant, and p values were reported using the GraphPad Prism style (*p ≤ 0.05, **p ≤ 0.01, ***p ≤ 0.001, and ****p ≤ 0.0001).
# HeLa cells = experiment: Resazurin assay of metabolic activity after mRNA transfection; assay type: cell-based, human; conditions: normalized to untreated
# Method: as §1, §2
# [4] = MC3T3, N/P 5, resazurin 24 h post-transfection
# [5] = N/P 5, resazurin 24 h post-transfection
# [6] = MC3T3, N/P 3, resazurin 24 h post-transfection
molecule,measurement,setting,value
"KCFQWLKNLKKVKALLVSCLKK [hLF-v2, lysine-substituted amphipathic hLF variant]",effect of oligomerization on uptake,MC3T3 cells [1]; 2 h incubation,pronounced increase in uptake
"OCFQWLONLOOVOALLVSCLOO [hLF-v3, ornithine-substituted amphipathic hLF variant]",effect of oligomerization on uptake,MC3T3 cells [1]; 2 h incubation,pronounced increase in uptake
"CCCCCCCCCCCCCCCCCC(=O)N[C@@H](C)C(=O)NCC(=O)N[C@@H](Cc1ccc(O)cc1)C(=O)N[C@@H](CC(C)C)C(=O)N[C@@H](CC(C)C)C(=O)NCC(=O)N[C@@H](CCCCN)C(=O)N[C@@H](CC(C)C)C(=O)N[C@@H](CC(C)C)C(=O)N[C@@H](CCCN)C(=O)N[C@@H](CCCN)C(=O)N[C@@H](CC(C)C)C(=O)N[C@@H](C)C(=O)N[C@@H](C)C(=O)N[C@@H](C)C(=O)N[C@@H](C)C(=O)N[C@@H](CC(C)C)C(=O)N[C@@H](CCCN)C(=O)N[C@@H](CCCN)C(=O)N[C@@H](CC(C)C)C(=O)N[C@@H](CC(C)C)C(N)=O [PF14, reference compound] (Stearoyl-AGYLLGKLL[Orn][Orn]LAAAAL[Orn][Orn]LL-NH2)",relative metabolic activity,MC3T3 cells [2]; [4],64%
same,stability against heparin decomplexation,"[3]; N/P 7, low heparin dose, Figure S8",least stable
same,relative metabolic activity,"HeLa cells; N/P 3, resazurin 24 h post-transfection",72%
same,relative metabolic activity,HeLa cells; [5],13%
"KCFQWQRNMRKVRGPPVSCIKR (disulfide 2-19 (inferred)) [Poly hLF-WT, hLF-WT oligomerized through intermolecular disulfide bonds]",stability of polyplexes against heparin-induced decomplexation,[3],significantly lower release of mRNA
CC[C@H](C)[C@H](NC(=O)[C@@H]1CSSC[C@H](NC(=O)[C@H](CCCCN)NC(C)=O)C(=O)N[C@@H](Cc2ccccc2)C(=O)N[C@@H](CCC(N)=O)C(=O)N[C@@H](Cc2c[nH]c3ccccc23)C(=O)N[C@@H](CCC(N)=O)C(=O)N[C@@H](CCCNC(=N)N)C(=O)N[C@@H](CC(N)=O)C(=O)N[C@@H](CCSC)C(=O)N[C@@H](CCCNC(=N)N)C(=O)N[C@@H](CCCCN)C(=O)N[C@@H](C(C)C)C(=O)N[C@@H](CCCNC(=N)N)C(=O)NCC(=O)N2CCC[C@H]2C(=O)N2CCC[C@H]2C(=O)N[C@@H](C(C)C)C(=O)N[C@@H](CO)C(=O)N1)C(=O)N[C@@H](CCCCN)C(=O)N[C@@H](CCCNC(=N)N)C(N)=O [Mono-hLF-WT] (Ac-KCFQWQRNMRKVRGPPVSCIKR-NH2; disulfide 2-19),relative metabolic activity,MC3T3 cells [2]; [6],125%
same,stability of polyplexes against heparin-induced decomplexation,[3],"significantly lower stability of these polyplexes compared to PF14, except for the highest heparin dose"
same,relative metabolic activity,HeLa cells; [5],83%
"OCFQWLONLOOVOALLVSCLOO (disulfide) [poly hLF-v3, polymeric hLF-v3]",uptake of Cy5-labeled mRNA polyplexes of amphipathic hLF variants,"MC3T3 cells [1]; 2 h incubation, live-cell confocal microscopy, serum present, Figure 5, four independent experiments",comparable to the one of PF14
same,relative metabolic activity,MC3T3 cells [2]; [4],~125%
"OCFQWQONMOOVOGPPVSCIOO [hLF-Orn, hLF analog with positively charged residues replaced by ornithines]","ratio of Poly hLF-x vs Mono-hLF-x, Corrected Total Cellular Fluorescence (Cy5)",MC3T3 cells [1],1.19 x
CC(C)C[C@@H]1NC(=O)[C@H](C)NC(=O)[C@H](CCCCN)NC(=O)[C@H](C(C)C)NC(=O)[C@H](CCCCN)NC(=O)[C@H](CCCCN)NC(=O)[C@H](CC(C)C)NC(=O)[C@H](CC(N)=O)NC(=O)[C@H](CCCCN)NC(=O)[C@H](CC(C)C)NC(=O)[C@H](Cc2c[nH]c3ccccc23)NC(=O)[C@H](CCC(N)=O)NC(=O)[C@H](Cc2ccccc2)NC(=O)[C@@H](NC(=O)[C@@H](N)CCCCN)CSSC[C@@H](C(=O)N[C@@H](CC(C)C)C(=O)N[C@@H](CCCCN)C(=O)N[C@@H](CCCCN)C(N)=O)NC(=O)[C@H](CO)NC(=O)[C@H](C(C)C)NC(=O)[C@H](CC(C)C)NC1=O [mono-hLF-v2] (H-KCFQWLKNLKKVKALLVSCLKK-NH2; disulfide 2-19),relative metabolic activity,MC3T3 cells [2]; [4],~125%
CC(C)C[C@@H]1NC(=O)[C@H](C)NC(=O)[C@H](CCCN)NC(=O)[C@H](C(C)C)NC(=O)[C@H](CCCN)NC(=O)[C@H](CCCN)NC(=O)[C@H](CC(C)C)NC(=O)[C@H](CC(N)=O)NC(=O)[C@H](CCCN)NC(=O)[C@H](CC(C)C)NC(=O)[C@H](Cc2c[nH]c3ccccc23)NC(=O)[C@H](CCC(N)=O)NC(=O)[C@H](Cc2ccccc2)NC(=O)[C@@H](NC(=O)[C@@H](N)CCCN)CSSC[C@@H](C(=O)N[C@@H](CC(C)C)C(=O)N[C@@H](CCCN)C(=O)N[C@@H](CCCN)C(N)=O)NC(=O)[C@H](CO)NC(=O)[C@H](C(C)C)NC(=O)[C@H](CC(C)C)NC1=O [Mono-hLF-v3] (H-[Orn]CFQWL[Orn]NL[Orn][Orn]V[Orn]ALLVSCL[Orn][Orn]-NH2; disulfide 2-19),relative metabolic activity,MC3T3 cells [2]; [6],125%
"OCFQWQONMOOVOGPPVSCIOO (disulfide) [poly-hLF-Orn, hLF-Orn oligomerized through intermolecular disulfide bonds]",difference in heparin decomplexation,"[3]; N/P 1 and 3, low or high heparin amounts, Figure S8",no difference
"OCFQWQHNMOHVHGPPVSCIOH [hLF-His&Orn, hLF analog with positively charged residues replaced by histidines and ornithines]","ratio of Poly hLF-x vs Mono-hLF-x, Corrected Total Cellular Fluorescence (Cy5)",MC3T3 cells [1],2.42 x
